From US4996225A, “Tri-phenyl alkane derivatives and their oestrogenic, anti-oestrogenic and progestanic uses” (Farmos Group Ltd., priority 1982, dated 1991)
Entries after “also recorded” stand apart in the source; their conditions may differ.

How the values were obtained:
[1] = system: MCF-7 cell line (human mammary adenocarcinoma); test: anti-tumour effect in vitro, growth of MCF-7 cell line (bioluminescence assay, intracellular ATP); format: cell-based; conditions: read-out: Antitumour effect against MCF-7 cell line (IC50 = concentration of compound where 50% inhibition of cell growth could be seen)
Protocol: The anti-tumour effect was studied in vitro as follows:
The amount of living cells after 4 h, 24 h and 48 h incubations were determined by bioluminescence assay (intracellular ATP determination).
inhibition of cell growth could be seen.

immature mouse uterus [2] = test: oestrogenic effect, uterus weight of immature mice; format: in vivo
Protocol: (§1) The oestrogen-antiestrogen (progesterone) effect of the new compounds in vivo was determined as follows: (1) The oestrogenic properties were determined by administering the new compounds, suspended in sesame oil, subcutaneously to 21 days old immature mice on three consecutive days. The mice were killed on the fourth day and the uterus was weighed. […] The weight correlates with the oestrogenic effect of the compound tested. […] In this case, the ability of the molecules to inhibit oestrogen-induced uterus weight increase was also investigated.

immature mouse uterus [3] = test: progestanic effect, uterus weight of immature mice (alone or with medroxyprogesterone acetate); format: in vivo; set-up: reduction in the weight of a mouse uterus, given alone / reduction in the weight of uterus with medroxyprogesterone / reduction in the weights of mice uterus, given alone: concentration or dose not given beside the values; conditions: for progestanic effect (in words): immature mouse uterus; for effect with medroxyprogesterone (in words) / reduction in the weights of mice uterus with medroxyprogesterone, compared to control: with medroxyprogesterone 0.06 mg/kg
mouse uterus sarcoma = test: antitumour effect against transplantable mouse uterus sarcoma; format: in vivo; conditions: 100 mg/kg, two weeks' treatment
Excerpt: The activity of the molecules against other tumours was studied by administering the molecules by stomach tube to animals implanted with transplantable uterus sarcoma (mice) or prostatic adenocarcinoma (rats).
Daily or twice weekly administration schedules were employed. NMRI mice (about 20 g, females) and Fischer 344 rats (about 200 g, males) were used. Estramustine phosphate served as positive control.
(§2) Transplantable rat mammary adenocarcinoma was developed by inoculating pieces of DMBA-induced carcinomas subcutaneously to healthy mature female rats. A tumour which expressed malignant growth was selected for further transplantations. Other transplantable tumours were inoculated subcutaneously as washed cell suspension (10^7 cells/animal).

[4] = system: estradiol induced weight increase in immature mouse uterus; test: antiestrogenic effect, inhibition of oestrogen-induced uterus weight increase in immature mice; format: in vivo
Protocol: as §1

[5] = system: DMBA-induced rat mammary adenocarcinomas; test: antitumour effect in vivo against DMBA-induced rat mammary adenocarcinoma; conditions: for growth / size of tumour (width×height): 30 mg/kg
Protocol: (§3) The anti-tumour effect was investigated in vivo against DMBA-induced rat mammary adenocarcinomas, transplantable mammary and ovarial adenocarcinoma and transplantable prostatic squamous cell carcinoma by the following methods:
Mammary adenocarcinomas were induced by DMBA in 35-40 days old female rats. […] Tumour size and numbers of tumours were evaluated twice a week. Tumour sizes in the control group, treated with solvent, were compared with the test groups.
The size refers to the width×height of the tumour. The growth rate is a difference between sizes compared with that of the first day of the treatment.

rat ovarial carcinoma = test: antitumour effect against transplantable rat ovarial carcinoma; format: in vivo; conditions: 5 mg/kg, ten days' treatment
Excerpt: as §3, §2

oestrogen receptors = target: T1, oestrogen receptors (Rattus norvegicus, UniProt P06211); test: affinity for oestrogen receptors, competition with 3H-17-β-estradiol in rat uterus cytosol (dextran-charcoal method); format: binding; conditions: read-out: Estrogen receptor affinity (concentration of compound where 50% competition (inhibition) with 3H-estradiol occurred)
T1 construct: rat uterus cytosol preparation; from tissue; host or cells: rat uterus cytosol
T1 sequence (P06211 1-600): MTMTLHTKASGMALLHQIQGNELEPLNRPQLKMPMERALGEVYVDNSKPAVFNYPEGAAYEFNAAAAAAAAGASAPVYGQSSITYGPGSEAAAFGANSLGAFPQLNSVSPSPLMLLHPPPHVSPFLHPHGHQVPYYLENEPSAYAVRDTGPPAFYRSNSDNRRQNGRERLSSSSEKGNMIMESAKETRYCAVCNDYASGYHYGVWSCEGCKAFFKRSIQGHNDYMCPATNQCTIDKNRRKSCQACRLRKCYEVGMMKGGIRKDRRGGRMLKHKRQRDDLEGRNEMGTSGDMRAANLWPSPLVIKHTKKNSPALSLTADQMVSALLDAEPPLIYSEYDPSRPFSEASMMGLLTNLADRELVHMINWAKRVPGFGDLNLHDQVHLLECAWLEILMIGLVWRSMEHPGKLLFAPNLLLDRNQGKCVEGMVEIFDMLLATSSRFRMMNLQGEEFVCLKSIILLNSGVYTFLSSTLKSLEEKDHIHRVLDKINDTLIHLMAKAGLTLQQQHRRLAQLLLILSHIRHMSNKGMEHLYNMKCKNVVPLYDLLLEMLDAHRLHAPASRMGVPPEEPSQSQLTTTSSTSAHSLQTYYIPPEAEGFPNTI
Protocol: The affinity of the new compounds for oestrogen receptors was determined by the ability to compete with ^3 H-labelled 17-β-estradiol in rat uterus cytosol preparation. After incubation, receptor-bound and receptor-unbound ligands were separated by a known dextrancharcoal method.

rat prostatic carcinoma = test: antitumour effect against transplantable prostatic carcinoma; format: in vivo; conditions: 1 mg/kg, 12 days' treatment
Excerpt: The anti-tumour effect was investigated in vivo against DMBA-induced rat mammary adenocarcinomas, transplantable mammary and ovarial adenocarcinoma and transplantable prostatic squamous cell carcinoma by the following methods: The activity of the molecules against other tumours was studied by administering the molecules by stomach tube to animals implanted with transplantable uterus sarcoma (mice) or prostatic adenocarcinoma (rats). Daily or twice weekly administration schedules were employed. NMRI mice (about 20 g, females) and Fischer 344 rats (about 200 g, males) were used. Estramustine phosphate served as positive control. Transplantable rat mammary adenocarcinoma was developed by inoculating pieces of DMBA-induced carcinomas subcutaneously to healthy mature female rats. A tumour which expressed malignant growth was selected for further transplantations. Other transplantable tumours were inoculated subcutaneously as washed cell suspension (10^7 cells/animal).

For `CN(C)CCOc1ccc(/C(=C(/CCCl)c2ccccc2)c2ccccc2)cc1` [Compound 7, 4-chloro-1,2-diphenyl-1-[4-[2-(N,N-dimethylamino)ethoxy]phenyl]-1-butene], the IC50 [1] was 1000 to 5000 nM, the “estrogenic effect: less than that of estradiol 0.05 mg/kg” value (immature mouse uterus [2]; 5 mg/kg) was “about 50%” and the “effect given alone: estrogenic (in words)” value (immature mouse uterus [2]; given alone) was “estrogenic”. For the same molecule, the “estrogenic effect (in words)” value (immature mouse uterus [2]; immature mice, s.c., three days) was “could be seen only at the higher concentrations investigated; also recorded: possessing antiestrogenic and estrogenic properties”, the “effect given alone: progestanic (in words)” value (immature mouse uterus [3]; given alone) was “progestanic” and the “progestanic effect (in words)” value (immature mouse uterus [3]) was “found to be progestanic”. The “interaction with medroxyprogesterone (in words)” value (immature mouse uterus [3]) was “slight inhibition of medroxyprogesterone at the lowest dose studied”, the “effect with medroxyprogesterone (in words)” value (immature mouse uterus [3]) was “weak” and the “reduction in the weights of mice uterus with medroxyprogesterone, compared to control” value (immature mouse uterus [3]) was 14%. The “size of uterus sarcoma smaller than that of control” value (mouse uterus sarcoma) was 30%, the “inhibition of estradiol induced effect in mouse uterus” value ([4]; 0.5 mg/kg) was 27% and the “anti-estrogenic effect (in words)” value ([4]; immature mouse uterus) was “possessed anti-estrogenic effects; also recorded: possessing antiestrogenic and estrogenic properties”. For the same molecule, the “effect with estradiol (in words)” value ([4]; with estradiol 0.05 mg/kg) was “anti-”, the “reduction in the weights of mice uterus, with estradiol” value ([4]; with estradiol 0.05 mg/kg) was 27% and the growth ([5]; day 1 of treatment) was 0. The “size of tumour (width×height)” value ([5]; day 1 of treatment) was 1.5188, the growth ([5]; day 3 of treatment) was 0.1551 and the “size of tumour (width×height)” value ([5]; day 3 of treatment) was 1.6739. The growth ([5]; day 7 of treatment) was -0.2118, the “size of tumour (width×height)” value ([5]; day 7 of treatment) was 1.3070 and the growth ([5]; day 9 of treatment) was -0.4714. The “size of tumour (width×height)” value ([5]; day 9 of treatment) was 1.0474, the growth ([5]; day 14 of treatment) was -0.5392 and the “size of tumour (width×height)” value ([5]; day 14 of treatment) was 0.1179. For the same molecule, the growth ([5]; day 17 of treatment) was -0.5752, the “size of tumour (width×height)” value ([5]; day 17 of treatment) was 0.0820 and the growth ([5]; day 21 of treatment) was -0.5851. The “size of tumour (width×height)” value ([5]; day 21 of treatment) was 0.0721, the growth ([5]; day 25 of treatment) was -0.5682 and the “size of tumour (width×height)” value ([5]; day 25 of treatment) was 0.0891. For the same molecule, the growth ([5]; day 28 of treatment) was -0.5640, the “size of tumour (width×height)” value ([5]; day 28 of treatment) was 0.09316 and the growth ([5]; day 35 of treatment) was -0.5379. For the same molecule, the “size of tumour (width×height)” value ([5]; day 35 of treatment) was 0.1193, the “growth of the tumours (in words)” value ([5]; highest dose used (30 mg/kg)) was “the growth of the tumours was found to stop” and the “dose range at which antitumour effect was found” value ([5]; rat, in vivo) was 1.0 to 30 mg/kg. The “size of rat ovarial carcinoma smaller compared with control” value (rat ovarial carcinoma) was 20%.

With `Oc1ccc([C@@]2(c3ccccc3)OCC[C@@H]2c2ccccc2)cc1` (relative stereo) [Compound 2, 2,3-diphenyl-2-(4-hydroxyphenyl)tetrahydrofuran] the IC50 [1] was 5000 to 10000 nM, the “estrogenic effect of their own (in words)” value (immature mouse uterus [2]; up to 5 mg/kg) was “no estrogenic effect of their own; also recorded: no antiestrogenic or estrogenic effect of its own” and the “decrease of weight of mouse uterus” value (immature mouse uterus [3]; 0.05 mg/kg) was 50%. The “effect given alone: progestanic (in words)” value (immature mouse uterus [3]; given alone) was “progestanic”, the “reduction in the weights of mice uterus, given alone” value (immature mouse uterus [3]; given alone, Table 2A) was 50% and the “progestanic effect (in words)” value (immature mouse uterus [3]) was “could purely be considered to be due to its progestanic effect”. The “interaction with medroxyprogesterone (in words)” value (immature mouse uterus [3]) was “synergistic effect with medroxyprogesterone”, the “effect with medroxyprogesterone (in words)” value (immature mouse uterus [3]) was “synergistic” and the “reduction in the weights of mice uterus with medroxyprogesterone, compared to control” value (immature mouse uterus [3]) was 53%. The IC50 (oestrogen receptors) was 100 to 1000 nM, the “size of prostatic tumour smaller than that of control” value (rat prostatic carcinoma) was 29% and the “antiestrogenic effect of its own (in words)” value ([4]; up to 5 mg/kg) was “no antiestrogenic or estrogenic effect of its own”. For the same molecule, the “effect with estradiol (in words)” value ([4]; with estradiol 0.05 mg/kg) was “no synergism” and the “antitumour effect against DMBA-induced mammary cancer (in words)” value ([5]; compared with compound 7) was “Antitumour effect less than that of compound 7”.
